Literature values in US20140274796A1, “Methods, Systems, and Compositions for In Vitro Concentric Cell Culture Analog Systems” (University of Central Florida Research Foundation, Inc., priority 2013, published 2014).

Columns and labels:
[1] = test system: sodium-channels of squid axon-membranes; details: literature statement [Lund 1982]
[2] = in vivo
[3] = literature statement [Scollon 2009]

| Compound | activity of stereospecific isomer [1] | toxicity relative to trans isomers [2] | metabolic rate relative to trans isoform [3] |
| --- | --- | --- | --- |
| CC1(C)C(C=C(Cl)Cl)C1C(=O)OCc1cccc(Oc2ccccc2)c1 (stereo not drawn) [1R-trans-, permethrin] | active | – | – |
| CC1(C)C(C=C(Cl)Cl)C1C(=O)OCc1cccc(Oc2ccccc2)c1 (single isomer, unassigned) [cis isomers, permethrin] | – | about ten times more toxic than the trans isomers | much slower |
| CC1(C)C(C=C(Cl)Cl)C1C(=O)OCc1cccc(Oc2ccccc2)c1 (stereo not drawn) [1R-cis-, permethrin] | active | – | – |
| CC1(C)C(C=C(Cl)Cl)C1C(=O)OCc1cccc(Oc2ccccc2)c1 (stereo not drawn) [1S-cis-, permethrin] | not | – | – |
| CC1(C)C(C=C(Cl)Cl)C1C(=O)OCc1cccc(Oc2ccccc2)c1 (stereo not drawn) [1S-trans-, permethrin] | not | – | – |
